# Results: PMC12169609, “Efficient Crystallization of Apo Sirt2 for Small-Molecule Soaking and Structural Analysis of Ligand Interactions” (Journal of Medicinal Chemistry, 2025)
# Key:
# Sirt2 = details: published Sirt2 inhibitors; no assay or reference printed at the place; cited from earlier work
# Sirt2_56–356 [1] = biological target: T1, Sirt2_56–356 (Homo sapiens, UniProt Q8IXJ6); assay: Fluorescence polarization assay (FPA), displacement of SirReal-TAMRA probe; format: binding; details: for FP-Assay Inhibition (%) at 125 µM: 125 µM compound; for FP-Assay Inhibition (%) at 500 µM: 500 µM compound; for FP-Assay Inhibition (%) at 2000 µM: 2000 µM compound
# T1 construct: human strep-tagged Sirt2_56–356 was expressed and purified; strep-tag; made in house
# T1 sequence (Q8IXJ6 56-356): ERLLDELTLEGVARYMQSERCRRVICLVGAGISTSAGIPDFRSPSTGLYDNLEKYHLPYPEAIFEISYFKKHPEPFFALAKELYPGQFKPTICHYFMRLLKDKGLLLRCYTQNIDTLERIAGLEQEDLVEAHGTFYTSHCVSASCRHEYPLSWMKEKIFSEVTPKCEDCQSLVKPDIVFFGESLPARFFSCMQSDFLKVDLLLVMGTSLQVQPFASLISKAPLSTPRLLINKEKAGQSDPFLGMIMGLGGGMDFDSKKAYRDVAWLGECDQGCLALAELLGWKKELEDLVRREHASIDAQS
# Procedure: Blank controls contained 19 μL of assay buffer and 1 μL DMSO. Negative controls (P neg) used 1 μL Mz242 (20 μM final concentration), while positive controls (Ppos) replaced the inhibitor with 1 μL DMSO. […] Fluorescence intensities were measured with an EnVision plate reader (PerkinElmer, optical module – BODIPY TMR FP, excitation filter – FP 531 nm, emission filter 1 – FP p-pol 595 nm, emission filter 2 – FP s-pol 595 nm). Inhibition was calculated using the equation reported below (P I, P neg, and P pos are FP values of samples, […], respectively). I=100×(1−(PI−Pneg/Ppos−Pneg))%
# Sirt2_56–356 [2] = biological target: T1, Sirt2_56–356; assay: Fluorescence thermal shift assay (DSF); format: binding; details: 6.0 μM Sirt2; for FTS-Assay Thermal shift at 1000 µM: 1000 µM compound; for FTS-Assay Thermal shift at 2000 µM: 2000 µM compound
# Procedure: Fluorescence thermal shift assays were performed in white 96-well plates (Hard-Shell PCR Plates, BioRad, USA) with a total volume of 20 μL and a final DMSO concentration of 5% (v/v), following a published protocol. ,
# Melting temperatures were determined using GraphPad Prism, following a published procedure.
SMILES,IC50 (Sirt2) [nM],FP-Assay Inhibition (%) at 125 µM (Sirt2_56–356 [1]) [%],FP-Assay Inhibition (%) at 500 µM (Sirt2_56–356 [1]) [%],FP-Assay Inhibition (%) at 2000 µM (Sirt2_56–356 [1]) [%],FTS-Assay Thermal shift at 1000 µM (Sirt2_56–356 [2]) [°C],FTS-Assay Thermal shift at 2000 µM (Sirt2_56–356 [2]) [°C]
COCCn1cc(COc2cccc(Cc3cnc(NC(=O)CSc4nc(C)cc(C)n4)s3)c2)nn1 [Mz242],120,–,–,–,–,–
CC(=O)Nc1ccc2c(c1)CCC2 [No. 4],–,32.8 ± 4.3,61.1 ± 6.5,78.5 ± 7.5,1.1,0.1
CN(C(=O)c1cccs1)C1CC2CCC1C2 (stereo not shown) [No. 5],–,-7.4 ± 8.3,10.3 ± 6.0,43.8 ± 10.1,0.5,0.7
CC1Sc2ccccc2NC(=O)C1C (stereo not shown) [No. 6],–,20.2 ± 2.9,59.9 ± 7.9,101.0 ± 4.7,1.5,–
COC(=O)c1sccc1-n1cccc1 [No. 7],–,11.5 ± 5.5,46.9 ± 4.3,76.2 ± 1.8,0.8,0.5
C#Cc1ccc(-c2cnco2)cc1 [No. 8],–,19.1 ± 4.6,61.2 ± 3.3,–,0.9,0.0
N#CCOc1cc(Cl)cc(Cl)c1 [No. 10],–,19.3 ± 10.5,53.9 ± 8.2,90.3 ± 14.7,0.7,–
Nc1ccccc1-c1cccs1 [No. 12],–,33.2 ± 10.3,66.4 ± 3.2,104.2 ± 3.2,–,0.0
CNCc1ccc(N2CCOCC2)s1 [No. 13],–,19.9 ± 3.1,49.3 ± 4.1,95.1 ± 3.5,–,–
c1ccc2c(CN3CCOCC3)csc2c1 [No. 14],–,24.3 ± 3.5,42.5 ± 2.9,91.9 ± 13.9,1.3,0.7
